{
  "source": "patent US20250195576A1",
  "about": "“METHOD TO GENERATE MORE EFFICIENT CAR-T CELLS” (INSTITUT NATIONAL DE LA SANTÉ ET DE LA RECHERCHE MÉDICALE, priority 2022, published 2025)",
  "key": {"[1]": {"test_system": "Human primary T lymphocytes", "experiment": "In vitro proliferation assay (CFSE dilution, anti-CD3/CD28 beads)", "type": "cell-based", "conditions": "data not shown", "method": "Proliferation assay. In vitro proliferation assay of primary T cells was assessed by dilution of Cell Trace Fluorescent Green kit (CFSE, Invitrogen, cat #C34554). After two washes in RPMI 1640 GlutaMAX medium, cells were resuspended at 4×10^6 cells per ml in a 5 μM Cell Trace Fluorescent Green solution. Cells were incubated in dark at 37° C. for 20 minutes. After the loading, cells were washed with a volume of hot RPMI medium supplemented with 10% Human AB serum, penicillin and streptomycin (50U/ml and 50 μg/m respectively) corresponding to 5 times the loading volume. Cell suspension was collected and dispensed into 96-wells round-bottom plates (2×10^5 cells per well) and stimulated using anti-CD3/CD28 coated-beads Dynabeads (Invitrogen, #11131D) for 3 days. Samples were run on BD LSR Fortessa and analyzed using FlowJo software. For in vivo proliferation assay, T^AS cells were labeled by dilution of CFSE as for in vitro proliferation assay described above. Then 10^7 CFSE^+ cells per immunodificient NSG mouse (NOD.Cg-Prkde^scid I12rg^tm1WjI/SzJ mouse, cat #JAX: 005557, Charles River) resuspended in 100 μL PBS supplemented by 10% FBS were intravenously injected in the retro-orbital vein. 5, 9 or 12 days after injection, spleens were collected to be minced and meshed on the top of a 40 μm cell strainer (Thermo Fisher, #22363547). […] Data were analyzed using FlowJo software."}, "[2]": {"test_system": "Human primary T lymphocytes", "experiment": "TNF-α intracellular labeling and cytokine secretion (MSD assay)", "type": "cell-based", "method": "(§1) FIGS. 1A to 1C: FOXO1 inhibition allows increase number of cytotoxic T cells and increased their activity. Human primary T lymphocytes from healthy donor (PBT) were treated with AS1842856 (500 nM) or equivalent of DMSO for 7 days. (1A) Cells were surface labeled with anti-CD4 and anti-CD8, next fixed and permeabilized before labeled with antibodies against Granzyme B. The graphs present the values correspond to the mean±SEM obtained with three independent donors. Significance was assessed using a paired Student t-test. (1B) At the end of the culture, cells were stimulated by PMA and ionomycin during three hours. After CD4 and CD8 labelling, intracellular detection of TNF-α was performed using an antibody against TNF-α. The values correspond to the mean±SEM obtained with three independent donors. Significance was assessed using a paired Student t-test. (1C) CD8 T cells from vehicle or treated cells were purified and co-cultured with P815 target cells pre-coated with anti-CD3 mAb, percentage of lysis was evaluated by 51Cr release assay at different effector: target ratios. The values correspond to the mean±SEM obtained with three independent donors. Significance was assessed using 2-way Anova test.\n(§2) Flow cytometry. […] After wash with PBS, cells were immediately analyzed by flow cytometry. […] After two washes, cells were run on BD LSRII (BD Biosciences) and analyzed using FlowJo software."}, "[3]": {"test_system": "Human primary T lymphocytes", "experiment": "Chemokine receptor membrane expression by flow cytometry", "type": "cell-based", "conditions": "data not shown", "method": "(§3) Flow cytometry. Cells were washed and stained with antibodies diluted in PBS (Thermo Fisher Scientific; cat #10010001) supplemented with 0.1% BSA (Sigma-Aldrich, cat #A7030-500G) for 20 minutes at 4° C. After wash with PBS, cells were immediately analyzed by flow cytometry. For intracellular staining, cells were fixed with 4% paraformaldehyde (PFA) for 10 minutes at room temperature, permeabilized using a buffer containing 0.1% Saponin (Sigma-Aldrich, 84510) in PBS and stained after two PBS washes using antibodies diluted in the same saponin buffer for 30 minutes at 4° C. After two washes, cells were run on BD LSRII (BD Biosciences) and analyzed using FlowJo software."}, "[4]": {"test_system": "ERK and AKT signaling proteins", "experiment": "Western blot of ERK and AKT phosphorylation upon TCR stimulation", "type": "cell-based, human", "conditions": "after TCR stimulation, including at steady state; data not shown", "method": "Western blot analysis. Protein expression levels were analyzed by Western blot as described (Froehlich et al. 2016). Blotting with primary was followed by goat-anti-mouse- or goat-anti-rabbit-HRP (Jackson ImmunoReseach) incubation and ECL revelation (GE Healthcare, #RPN2106)."}, "FOXO1": {"test_system": "FOXO1", "experiment": "CD62L expression by cytometry", "type": "cell-based, human", "method": "Cell transfection. Cells were transfected by nucleofection using the Human T Cell Nucleofector solution (Lonza, VPA-1002) and program U-014 of the Nucleofector AMAXA. For CRISPR, 2×10^6 cells were nucleofected with 75 pmol of Cas9 protein (Thermo Fisher, #A36499) and one RNA guide targeting the FOXO1 gene (Thermo Fisher, #sgRNACRISPR889854_SGM Foxo1) at a 1:1 molar ratio. To induce FOXO1 expression, 5×10^6 cells were transfected with 5 μg DNA of the pEGFP-FOXO1-T24A-S256A-S319A-H215R plasmid (Nagashima et al., 2010) or pEGFP-N1 (clontech) as control. Jurkat T cells (5×106 in RPMI 1640 medium) were electroporated at 260 V, 1000 μF in 4-mm polycarbonate cuvettes (Eurogentec) with 5 μg of the GFP, the triple mutant T24A/S256A/S319A FOX01-GFP (FOXO1-TM-GFP) or the FOXO1-TM-GFP DNA binding mutant plasmids (FOXO1-TM-H215R-GFP) (Fabre et al. 2008). Four hours later, AS1842856 was added or not in the culture. At 48 hours, CD62L expression was analyzed by cytometry.\nFlow cytometry. Cells were washed and stained with antibodies diluted in PBS (Thermo Fisher Scientific; cat #10010001) supplemented with 0.1% BSA (Sigma-Aldrich, cat #A7030-500G) for 20 minutes at 4° C. After wash with PBS, cells were immediately analyzed by flow cytometry. […] After two washes, cells were run on BD LSRII (BD Biosciences) and analyzed using FlowJo software."}, "[5]": {"test_system": "Human primary T lymphocytes", "experiment": "Viability assay (propidium iodide)", "type": "cell-based", "conditions": "in vitro culture", "method": "PBT were treated with AS1842856 (500 nM) or vehicle only. Every seven days, some cells from the two conditions were collected and labeled with Propidium Iodide (PI). […] Significance was assessed using 2-way Anova test.\nViability assay. Cells were collected and propidium iodide was added (10 μg/ml, Invitrogen). Samples were run on FACSCalibur (Becton Dickinson) and analyzed using FlowJo software."}, "[6]": {"test_system": "Human primary T lymphocytes", "experiment": "Calcium measurements upon TCR stimulation", "type": "cell-based", "conditions": "compared to untreated cells; data not shown", "method": "Calcium Measurements. T cells were incubated for 20 minutes at 37° C. with 1.5 μM Fura-2/AM (Molecular Probes, F1225). Experiments were performed at 37° C. in mammalian saline buffer (140 mM NaCl, 5 mM KCl, 1 mM CaCl2, 1 mM MgCl2, 20 mM HEPES, 11 mM glucose). Calcium measurements by spectrofluorimetry were performed as previously described (Conche et al. 2009) with a Cary Eclipse spectrofluorimeter (Varian) (excitation: 340 and 380 nm; emission: 510 nm)."}, "[7]": {"test_system": "Human primary T lymphocytes", "experiment": "T cell subsets and immune checkpoint expression by flow cytometry", "type": "cell-based", "method": "PBT were treated with 500 nM of AS1842856 or vehicle only for 7 days. (3A) Memory subsets composition in vehicle or AS1842856 CD4 (upper panel) and CD8 (lower panel) cells. TN are CD45RA+, CD27+, CD95−; TSCM are CD45RA+, CD27+, CD95+; TCM are CD45RA−, CD27+; TEM are CD45RA−, CD27− and Teff are CD45RA+, CD27−. The graphs show the mean percentage±SEM of the different subsets in vehicle or AS1842856 conditions on CD4 (upper panel) and CD8 (lower panel) T cells obtained with five independent donors. Significance was assessed using 1-way Anova test. (3B) CTLA-4, PD-1 and TIGIT expressions on CD4 (upper panel) and CD8 (lower panel) T cells were measured by FACS. The graphs show the MFI±SEM obtained with five independent donors. Significance was assessed using a paired Student t-test.\nas §3"}, "[8]": {"test_system": "Human primary T lymphocytes", "experiment": "Granzyme B expression by intracellular flow cytometry", "type": "cell-based", "method": "as §1\nCells. […]\nas §2"}},
  "data": [
    {"molecule": "CCn1cc(C(=O)O)c(=O)c2c(N)c(F)c(NC3CCCCC3)cc21", "note": "[AS1842856]", "values": [
      {"measurement": "CFSE dilution peaks", "setting": "[1]; after 60h of stimulation", "result": "greater number of CFSE dilution peaks"},
      {"measurement": "Time to proliferation after stimulation", "setting": "[1]; anti-CD3/CD28 beads, CFSE", "result": 40, "unit": "h"},
      {"measurement": "TNF-α expression (percentage of cells, intracellular labeling)", "setting": "[2]; 500 nM 7 days, then PMA and ionomycin three hours", "result": "significantly increased"},
      {"measurement": "TNF-α secreted in supernatant (MSD assay)", "setting": "[2]; data not shown", "result": "confirmed"},
      {"measurement": "CCR4 membrane expression", "setting": "[3]", "result": "increase"},
      {"measurement": "CCR6 membrane expression", "setting": "[3]", "result": "increase"},
      {"measurement": "CX3CR1 membrane expression", "setting": "[3]", "result": "increase"},
      {"measurement": "CXCR4 membrane expression", "setting": "[3]", "result": "significant decrease"},
      {"measurement": "Phosphorylation of AKT", "setting": "[4]", "result": "hypophosphorylation"},
      {"measurement": "Phosphorylation of ERK", "setting": "[4]", "result": "hyperphosphorylation"},
      {"measurement": "CD62L expression in Jurkat T cells with FOXO1 H215R mutant", "setting": "FOXO1; Jurkat T cell line transfected with FOXO1 H215R mutant, 48 hours, data not shown", "result": "could not be further decreased"},
      {"measurement": "CD62L expression", "setting": "FOXO1; primary T cells", "result": "decrease"},
      {"measurement": "T cell viability", "setting": "[5]", "result": "promotes"},
      {"measurement": "Toxicity on T cells", "setting": "[5]", "result": "no toxicity"},
      {"measurement": "Calcium influx induced upon TCR stimulation", "setting": "[6]", "result": "less rapid and of a lower magnitude"},
      {"measurement": "CTLA-4 expression", "setting": "[7]", "result": "no significant modification"},
      {"measurement": "Markers of Th1 (T-bet+), Th2 (GATA3+) and Treg (FOXP3+) subsets", "setting": "[7]; CD4 subsets, data not shown", "result": "no significant changes"},
      {"measurement": "Cells expressing PD1", "setting": "[7]; after AS1842856 treatment", "result": "no more than 10%"},
      {"measurement": "Naive subset (CD45RA+/CD27+/CD95−)", "setting": "[7]; both CD4 and CD8 T cells", "result": "sharp decrease"},
      {"measurement": "TSCM subset (CD45RA+/CD27+/CD95+)", "setting": "[7]; both CD4 and CD8 T cells", "result": "strong increase"},
      {"measurement": "PD1 expression", "setting": "[7]; both CD8+ and CD4+ cells", "result": "small but significant increase"},
      {"measurement": "CD8 expression", "setting": "[7]; data not shown", "result": "decreased expression"},
      {"measurement": "Tfh (CXCR5+, BcL-6+) subset", "setting": "[7]; data not shown", "result": "slight increase"},
      {"measurement": "TIGIT expression", "setting": "[7]; reaching significance only in CD8+ T cells", "result": "consistent increase"},
      {"measurement": "Granzyme B expression in CD8 subset", "setting": "[8]; AS1842856 500 nM, 7 days, CD8 T cells", "result": "upregulated"},
      {"measurement": "Increase of granzyme B expression", "setting": "[8]; same conditions as Foxo1 invalidation by CRISPR, data not shown", "result": "more than two-fold increase"}
    ]}
  ]
}
